How the values were obtained:
[1] = test system: hepatic copper accumulation; test: Diet trial with randomized placebo-controlled zinc application: quantitative hepatic copper by neutron activation analysis of liver biopsies; format: in vivo, dog
Experimental: All dogs were fed the same diet. […] The pharmacist was the only person aware of group allocations until completion of the study. Hepatic copper concentrations and histopathology were assessed along with clinical examinations and blood-work before and after treatment for a mean of 8 months (range 5-13), and 16 months (range 12-25). Plasma zinc concentrations were measured at additional time points during treatment.
All dogs had completed their treatment with penicillamine prior to the start of this study. A medical history was obtained from all dogs and a physical examination was performed. […] Two biopsies were fixed in 10 percent neutral buffered formalin, and one biopsy was stored in a copper-free container for quantitative copper determination.
A quantitative assay for copper in liver tissue was performed by neutron activation analysis, according to a protocol described by Teske et al, using the facilities described by Bode (Bode, P. (1990) Journal of Trace and Microprobe Techniques 8: 139; Teske et al. (1992) Vet Rec 131: 30-32). Quantitative copper concentrations were measured in lyophilised liver biopsies and reported in mg/kg dry weight liver.
All dog owners were provided with the same specially manufactured diet. […] Metabolizable energy (measured according to Association of American Feed Control Officials protocol): 1650 kcal/kg as fed). […]

[2] = Pharmacokinetic study of oral zinc gluconate, plasma zinc by atomic absorption spectrometry; format: in vivo; conditions: mean of dog 1 and dog 2
Experimental: Two unrelated nine-year old, healthy Labrador Retrievers (1 female and 1 male) were used in a pharmacokinetic study. Food was withheld for a 12-hour period prior to oral administration of zinc, and during the initial 6-hour testing period. Water was freely available. […] Heparinized blood samples (4 ml) were collected from the jugular vein before dosing (time 0) and 15, 30, 45, 60, 90, 120 minutes, and 4, 8, 12 and 24 hours after application of the drug. Plasma was stored at −20° C. until analysis for zinc using atomic absorption spectrometry.
In addition the test was used to detect a difference between group-1 and group-2 before the study, at recheck-1, and at recheck-2 (significance level p<0.05).

[3] = test system: hepatic copper accumulation; test: Example 7: hepatic copper before penicillamine, after penicillamine and after diet; format: in vivo, dog; conditions: all dogs fed the diet of Example 6, data not shown
Experimental: FIG. 3 illustrates the effectiveness of the diet of the invention on hepatic copper concentrations (mg/kg dry weight) in 18 Labrador Retrievers compared with the effect of penicillamine alone. The key to the x-axis is as follows: 1=pre-penicillamine, 2=post-penicillamine/pre-food, 3=post-food. […] The dotted line represents the normal level of hepatic copper for adult dogs.
During an investigation of the effect of zinc on hepatic copper concentration, hepatic copper concentration was measured in 18 pure-bred Labrador Retrievers. Half of the dogs were provided with a supplement of zinc and the other half were provided with a placebo. All of the dogs were fed the diet of Example 6. Hepatic copper 25 concentration was measured using the method of Example 6 at 3 time points: (1) before treatment with penicillamine; (2) after treatment with penicillamine but before treatment with the diet of Example 6; and (3) after the diet treatment.

[4] = test system: canine dermal fibroblast cells ATP7A^C/C, ATP7A^C/T, ATP7A^T/T; test: 64Cu incorporation and efflux (washout) in canine primary dermal fibroblasts, gamma counting; format: cell-based, dog; conditions: 100 μM
Experimental: FIGS. 7A and 7B show copper isotope measurements in canine primary fibroblast cells. Copper isotope (64Cu) measurements in ATP7A^C/C, ATP7A^C/T and ATP7A^T/T cells after (A) 24 h or 48 h incubation with 10 μM, 50 μM and 100 μM 64Cu, or (B) 24 hrs incubation, followed by extensive washing and incubation in non copper isotope media for 2 h. Gamma-counts were corrected for cell culture conditions by means of a protein and MTS assay. Data points for 24 hr incubation represent the mean+/−SEM from two independent experiments performed in duplicate and expressed as counts per minute (cpm) of total cell protein. Other data points represent mean+/−SEM from one experiment in duplicate.
The canine dermal fibroblast cells CDFIB44, CDFIB62 and CDFIB111 were isolated from euthanized female Labradors. Blood samples, taken prior to euthanizing were subject to the genetic test of the invention to ascertain increased risk to the disease. CDFIB111 was homozygous for the ATP7A SNP and CDFIB62 was heterozygote. […] was used as a control. […]
For copper treatment, cells were incubated in 10, 50, and 100 μM copper for 24 or 48 h. […] Emission was measured in individual tubes containing media, washing steps, or lysate in a Packard B5003 gamma counter (Packard BioScience Benelux, Groningen, the Netherlands) between 450 and 800 keV for 2 minutes. […] Cells were then analysed for copper as described above. Copper accumulation was normalized to the protein concentration of the cell lysate (quantified using a Bio Rad Protein Assay Kit, Bio Rad) and an MTS colorimetric assay (3-[4,5-dimethylthiazol-2-yl]-5-[3-carboxymethoxyphenyl]-2-[4-sulfophenyl]-2H-tetrazolium) (Promega) was run in parallel. This quantitative assay detects living but not dead cells. The absorbance at 490 nm (test wavelength) and at 650 nm (reference wavelength) was measured using an enzyme-linked immunosorbent assay microplate reader (Bio-Rad); wells containing culture medium but no cells served as blanks. […]

[5] = 24 h incubation, 2 h of washout

CC(C)(S)[C@@H](N)C(=O)O [penicillamine]
mean hepatic copper concentration after completion of treatment with penicillamine ([1]; 24 Labradors at the start of the diet trial, reference range 400 mg/kg dry weight): 894 mg/kg dry weight

zinc gluconate
apparent oral clearance (CL/F) [2]: 2.116898 mL/min/kg
effect of adjunctive zinc on the de-coppering effect of the diet ([1]; diet + zinc gluconate 7.5 mg/kg PO BID versus diet + placebo): did not amplify the de-coppering effect
difference between copper levels in dogs treated with zinc and with the placebo [3]: no significant difference

[64Cu] [Cu64]
isotope retained by ATP7A^C/C cells [4, 5]: approximately 45%
isotope retained by ATP7A^T/T cells [4, 5]: ~90%
increase in incorporation of copper in ATP7A^T/T and ATP7A^C/T cells compared to ATP7A^C/C cells ([4]; after 24 h and 48 h): approximately two-fold
